The assay relates to MDA-MB-468 breast. Put plainly: NCI-60 cell line screen, 48 h.

Values joined by “and” are separate entries in the source; they are usually repeats but may differ in a detail not shown here. Identical values can stand only once.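 Values below derive from 48-hour exposures of cells grown in 96-well plates, with endpoints linearly interpolated between the two concentrations bracketing the appropriate inhibition level. GI50 is the concentration that inhibits growth by half. TGI is the concentration that stops growth completely.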 Where only a bound is given, the exact number is not on record here.

Consider `O=C1OC(c2ccccc2)(c2cc(Br)c(O)c(Br)c2)c2ccccc21` (configuration not stated), for which the GI50 was 27000 nM and the TGI amounted to 90900 nM.
For `O=C(/C(=C/c1ccc([N+](=O)[O-])cc1)SCc1ccc(F)cc1)c1ccc(Cl)cc1` the same measures were 9460 nM and 38700 nM.
Consider `O=C(NO)c1ccc(Cn2c(=O)n(-c3ccccc3F)c(=O)c3ccccc32)cc1`, for which the GI50 was 1180 nM and the TGI is 3210 nM.
For `CCS(=O)(=O)Nc1cccc(Nc2c3cccc(C)c3nc3c(C)cccc23)c1OC` the same measures were 2240 nM and 25500 nM.
Turning to `CN(C)CCCNC(=O)c1cncnc1Nc1ccc(OCc2cccc(F)c2)c(Cl)c1`, the GI50 was 1550 nM and the TGI is 3020 nM.
Regarding `Cc1cc(Oc2ccc3nc(COc4ccc(CC5SC(=O)NC5=O)cc4)n(C)c3c2)cc(C)c1N` (configuration not stated), the GI50 is 25900 nM and the TGI was > 93600 nM.
For `c1ccc(CN=C(NCc2ccccc2)NCc2ccccc2)cc1` the same measures were 2290 nM and 5380 nM.
On to `Nc1c(C(=O)c2ccc(CCCN3CCOCC3)cc2)cnn1-c1ccc(F)cc1`, for which the GI50 is 8190 nM and the TGI is > 25000 nM.
With `CN1CC(CNC(=O)OCc2ccccc2)CC2c3cccc4c3c(cn4C)CC21` (configuration not stated), the GI50 is 1610 nM and the TGI was found to be 3120 nM.
For `COc1cc(-c2nn(-c3cccc(NC(=O)c4ccc(N5CCOCC5)c(C(F)(F)F)c4)c3)cc2-c2ccncc2)ccc1Cl`, the GI50 is 183 nM and the TGI came to 781 nM.
For `O=S(=O)(Nc1cc(Cl)ccc1Cl)c1ccc(-c2cnc(C3CC3)o2)cc1` the same measures were 821 nM and 30100 nM.
Regarding `C/C(=C(\c1ccc(OCCN2CCCCCC2)cc1)c1ccc(OC(=O)Cc2ccccc2)cc1)c1ccc(Cl)cc1`, the GI50 is 1990 nM and the TGI stood at 4380 nM.
The matching figures for `CCN(CC)CCCC(C)N=c1cc(Nc2cc(=NC(C)CCCN(CC)CC)c3cc(OC)ccc3o2)oc2ccc(OC)cc12` (configuration not stated): 543 nM and 1190 nM.
With `CC1=C([Te]c2ccc(O)cc2)C(=O)c2ccccc2C1=O`, the GI50 is 697 nM and the TGI is 2170 nM.
The matching figures for `O=C(Nc1nc2ccc(F)cc2s1)c1cccnc1Nc1ccc(Cl)cc1`: 1610 nM and > 100000 nM.
For `COc1cccc2c1c(C1=C(c3cn(C)c4ccccc34)C(=O)NC1=O)cn2C`, the GI50 is > 25000 nM and the TGI was > 25000 nM.
Take `CC/C(=C(/c1ccc(O)cc1)c1ccc(OCCN2CCCCC2)cc1)c1ccc(OC)cc1`: the GI50 was 1370 nM and the TGI came out at 3220 nM.
Turning to `Cc1ncsc1-c1ccc(CNC(=O)[C@@H]2C[C@@H](O)CN2C(=O)[C@@H](NC(=O)C2(C#N)CC2)C(C)(C)C)cc1`, the GI50 was 54500 nM and the TGI is > 100000 nM.
Turning to `COc1ccc(-c2nc(N3CCN(C(=O)C4CCCCC4)CC3)c3c4c(sc3n2)CCCC4)cc1`, the GI50 is 29100 nM and the TGI is > 100000 nM.
Turning to `Cc1nc2cnc(N)c(C#Cc3cncc(C(=O)Nc4ccc(Cl)c(C(F)(F)F)c4)c3)c2nc1C`, the GI50 is 2870 nM and the TGI was found to be 11600 nM.
For `COC(=O)[C@H](Cc1ccc(O)cc1)NC(=O)[C@@H](OC)[C@@H]1Cc2cc3cc(OC4CC(OC5CC(O)C(O)C(C)O5)C(O)C(C)O4)c(C)c(O)c3c(O)c2C(=O)[C@H]1OC1CC(OC2CC(OC3CC(C)(O)C(O)C(C)O3)C(O)C(C)O2)C(O)C(C)O1` (some centres not stated) the same measures were 67.2 nM and 839 nM.
For `Cc1ccc(-c2nc(N3CCCNCC3)c3oc(-c4ccccc4)nc3n2)cc1`, the GI50 was 1550 nM and the TGI turned out to be 3240 nM.
Take `COc1cc(-c2ncn(/C=C\C(=O)OC(C)C)n2)cc(C(F)(F)F)c1`: the GI50 was 126 nM and 141 nM; the TGI is 670 nM and 1240 nM.
On to `CNC(=O)Oc1cc(C)c(/C=C/c2cncc(C(=O)NC)c2)c(C)c1`, for which the GI50 is 11000 nM and the TGI is > 25000 nM.
As to `CCN(CC)CCNc1cc(-c2cccc(OC(F)(F)F)c2)nc2ccc(N3CCCC3)cc12`, the GI50 is 1640 nM and 1840 nM; the TGI was 3180 nM and 3610 nM.
For the compound `COc1cc(OC)c(NC(=O)c2cc3ccccc3cc2O)cc1Cl`, the GI50 was 3120 nM and the TGI came to 8240 nM.
Turning to `C=CN(C)S(C)(=O)=O`, the GI50 is > 100000 nM and the TGI was > 100000 nM.
In the case of `CCc1ccc2c(c1)N(CCO)C1=C(C(=O)OC1)C2c1cccc(Cl)c1` (configuration not stated), the GI50 was 239 nM and the TGI was determined as 861 nM.
The matching figures for `C[C@H]1[C@H]2[C@H]3CC[C@@H]4[C@@]5(C)C/C(=C/c6cccnc6)C(=O)C(C)(C)[C@@H]5CC[C@@]4(C)[C@]3(C)CC[C@]23CO[C@]1(C)[C@@H](C(=O)/C=C\c1cccnc1)C3`: 864 nM and 2390 nM.
For `CCc1cc2c(cc1N1CCC(N3CCOCC3)CC1)C(C)(C)c1[nH]c3cc(C#N)ccc3c1C2=O`, the GI50 is 1800 nM and 2050 nM and 2140 nM; the TGI was 5250 nM and 5670 nM and 7850 nM.
`O=C(NCc1ccncc1)C12CC3CC(C1)CC(c1ccc(Cl)cc1)(C3)C2`: the GI50 is 6580 nM and the TGI was 21100 nM.
`CCOC(=O)[C@@H](C)C[C@H](Cc1ccccc1)NC(=O)c1csc([C@@H](C[C@H](C(C)C)N(C)C(=O)[C@H](CC)NC(=O)[C@H]2CCCCN2C)OC(C)=O)n1`: the GI50 was < 1.67 nM and the TGI is > 12600 nM.
The matching figures for `CCCCCCc1nc2nc(Cl)c(Cl)nc2[nH]1`: 2900 nM and > 100000 nM.
The matching figures for `COc1ccc(-c2c(-c3cc(OC)c(OC)c(OC)c3)noc2N)cc1`: < 14.3 nM and 1100 nM.
`COc1cnc2c(c1)C(=O)c1c-2n(CCCNC(C)C)c(=O)c2cc(F)ccc12`: the GI50 is 226 nM and the TGI stood at 702 nM.
For `Cc1cc(O)cc(C)c1/C=C/c1cncc(-c2nn[nH]n2)c1` the same measures were > 25000 nM and > 25000 nM.
